Reference: US10538555B2, “Macrocyclic inhibitors of the PD-1/PD-L1 and CD80(B7-1)/PD-L1 protein/protein interactions” (BRISTOL-MYERS SQUIBB COMPANY, priority 2014, dated 2020)
*1 amine or outer side, *2 acyl side, *3 side chain or, on linkers, in order; H or OH if unused. Where a SMILES comes first, the peptide text is derived from it. Bridges are numbered along the chain shown (N, C = ends). [ ]: non-standard residue; d: D form. ξ: configuration not given here. Trp(1-CH2COOH) = N[C@@H](Cc1cn(CC(=O)O)c2ccccc12)C(=O)O; Phe(3,4,5-F3) = N[C@@H](Cc1cc(F)c(F)c(F)c1)C(=O)O; Phe(2,4-Cl2) = N[C@@H](Cc1ccc(Cl)cc1Cl)C(=O)O; Phe(3,4-F2) = N[C@@H](Cc1ccc(F)c(F)c1)C(=O)O; NMePhe(4-F) = CN[C@@H](Cc1ccc(F)cc1)C(=O)O; X8 = O=C([C@H](CC1CNc2ccccc21)N[*:1])[*:2]; Pro(4R-Me) = C[C@H]1CN[C@H](C(=O)O)C1; d(cisHyp) = O=C(O)[C@H]1C[C@@H](O)CN1; Bta = N[C@@H](Cc1csc2ccccc12)C(=O)O; NMeY = CN[C@@H](Cc1ccc(O)cc1)C(=O)O; Hyp = O=C(O)[C@@H]1C[C@@H](O)CN1; NMeF = CN[C@@H](Cc1ccccc1)C(=O)O; X1 = O=C([C@H]1COCCN1[*:1])[*:2]; dHyp = O=C(O)[C@H]1C[C@H](O)CN1; NMehSer = CN[C@@H](CCO)C(=O)O; NMeNle = CCCC[C@H](NC)C(=O)O; Pip = O=C(O)[C@@H]1CCCCN1; hSer = N[C@@H](CCO)C(=O)O; NMeA = CN[C@@H](C)C(=O)O; Orn = NCCC[C@H](N)C(=O)O; dThz = O=C(O)[C@H]1CSCN1; Dab = NCC[C@H](N)C(=O)O; Dap = NC[C@H](N)C(=O)O; ξC = NC(CS)C(=O)O; Sar = CNCC(=O)O

biological target: T1, Human PD-L1/PD-1 (Homo sapiens, UniProt Q9NZQ7); assay: HTRF Human PD-L1/PD-1 binding assay (PD-1-Ig/PD-L1-His); details: PD-L1-His 10 nM, PD-1-Ig 20 nM; class symbol; read-out: HTRF Human PD-L1/PD-1 Binding Assay IC50 Range
T1 construct: TVMV protease cleavage site (C); made in house; host or cells: HEK293T cells
Procedure, shortened: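 Competition of macrocyclic peptides for PD-1/PD-L1 binding measured by HTRF in dPBS containing 0.1% BSA and 0.05% Tween-20. Compound and PD-L1-His (10 nM final) incubated 15 min before PD-1-Ig (20 nM final) and a further 15 min.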

T1 sequence (Q9NZQ7 with tags, fused parts or gaps): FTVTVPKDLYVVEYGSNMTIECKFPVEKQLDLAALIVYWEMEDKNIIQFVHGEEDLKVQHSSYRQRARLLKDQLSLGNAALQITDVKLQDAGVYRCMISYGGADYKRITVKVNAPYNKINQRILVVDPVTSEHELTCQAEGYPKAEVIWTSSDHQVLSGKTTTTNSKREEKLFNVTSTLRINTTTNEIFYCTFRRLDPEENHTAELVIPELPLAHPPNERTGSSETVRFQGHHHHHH

Row | SMILES | IC50
1 | CCCC[C@H]1C(=O)N(C)[C@@H](CCCC)C(=O)N[C@@H](CCCN)C(=O)N[C@H](C(=O)NCC(N)=O)CSCC(=O)N[C@@H](Cc2ccc(O)cc2)C(=O)N2CCCC[C@H]2C(=O)N[C@@H](CC(=O)O)C(=O)N2CCC[C@H]2C(=O)N[C@@H](Cc2c[nH]cn2)C(=O)N[C@@H](CCC(=O)O)C(=O)N2C[C@H](O)C[C@H]2C(=O)N[C@@H](Cc2c[nH]c3ccccc23)C(=O)N[C@@H](CO)C(=O)N[C@@H](Cc2c[nH]c3ccccc23)C(=O)N1C [Example 1536] ({CH2CO}-Y[Pip]DPHE[Hyp]WSW[NMeNle][NMeNle][Orn]CG-NH2; thioether N-14) | 10 to 99.9 nM
2 | CCCC[C@H]1C(=O)N(C)[C@@H](CCCC)C(=O)N[C@@H](CC(=O)O)C(=O)N[C@H](C(=O)NCC(N)=O)CSCC(=O)N[C@@H](Cc2ccc(O)cc2)C(=O)N(C)[C@@H](C)C(=O)N[C@@H](CC(=O)O)C(=O)N2CCC[C@H]2C(=O)N[C@@H](Cc2cnc[nH]2)C(=O)N[C@@H](CCCCN)C(=O)N2C[C@H](O)C[C@H]2C(=O)N[C@@H](Cc2c[nH]c3ccccc23)C(=O)N[C@@H](CCCCN)C(=O)N[C@@H](Cc2cn(CC(=O)O)c3ccccc23)C(=O)N1C [Example 6209] ({CH2CO}-Y[NMeA]DPHK[Hyp]WK[Trp(1-CH2COOH)][NMeNle][NMeNle]DCG-NH2; thioether N-14) | 1 to 9.9 nM
3 | CCCC[C@H]1C(=O)N(C)[C@@H](CCCC)C(=O)N[C@@H](CCCNC(=N)N)C(=O)N[C@H](C(=O)NCC(N)=O)CSCC(=O)N[C@@H](Cc2ccc(Cl)cc2Cl)C(=O)N(C)[C@@H](C)C(=O)N[C@@H](CC(N)=O)C(=O)N2CCC[C@H]2C(=O)N[C@@H](CN)C(=O)N[C@@H](CC(C)C)C(=O)N2C[C@H](O)C[C@H]2C(=O)N[C@@H](Cc2c[nH]c3ccccc23)C(=O)N[C@@H](CO)C(=O)N[C@@H](CC2CNc3ccccc32)C(=O)N1C (stereo partly drawn) [Example 7069] ({CH2CO}-[Phe(2,4-Cl2)][NMeA]NP[Dap]L[Hyp]WS[X8][NMeNle][NMeNle]RCG-NH2; thioether N-14) | 1 to 9.9 nM
4 | CCCC[C@H]1C(=O)N[C@@H](CC(N)=O)C(=O)N2CCC[C@H]2C(=O)N[C@@H](CO)C(=O)N[C@@H](CCO)C(=O)N2CCC[C@H]2C(=O)N[C@@H](Cc2c[nH]c3ccccc23)C(=O)N[C@@H](CCCN)C(=O)N[C@@H](Cc2c[nH]c3ccccc23)C(=O)N(C)[C@@H](C)C(=O)N(C)CC(=O)N[C@@H](CCCNC(=N)N)C(=O)NC(C(=O)NCC(N)=O)CSCC(=O)N[C@@H](Cc2ccc(O)cc2)C(=O)N1C (stereo partly drawn) [Example 10204] ({CH2CO}-Y[NMeNle]NPS[hSer]PW[Orn]W[NMeA][Sar]R[ξC]G-NH2; thioether N-14) | 1000 to 10000 nM
5 | CCCC[C@H]1C(=O)N(C)[C@@H](CCCC)C(=O)N[C@@H](CCCNC(=N)N)C(=O)NC(C(=O)NCC(N)=O)CSCC(=O)N[C@@H](Cc2ccc(O)cc2)C(=O)N(C)[C@@H](C)C(=O)N[C@@H](CC(N)=O)C(=O)N2CCC[C@H]2C(=O)N[C@@H](CC(N)=O)C(=O)N[C@@H](CC(N)=O)C(=O)N2CCC[C@H]2C(=O)N[C@@H](Cc2c[nH]c3ccccc23)C(=O)N[C@@H](CO)C(=O)N[C@@H](Cc2csc3ccccc23)C(=O)N1C (stereo partly drawn) [Example 10042] ({CH2CO}-Y[NMeA]NPNNPWS[Bta][NMeNle][NMeNle]R[ξC]G-NH2; thioether N-14) | 10 to 99.9 nM

Second part, the molecule after the results:

Row | IC50 | SMILES
6 | 10 to 99.9 nM | CCCC[C@H]1C(=O)N2C[C@H](O)C[C@@H]2C(=O)N[C@@H](CC(=O)O)C(=O)N[C@@H](C(C)C)C(=O)N(C)[C@@H](Cc2ccccc2)C(=O)N[C@@H](Cc2ccc(O)cc2)C(=O)N2C[C@H](O)C[C@@H]2C(=O)N[C@@H](Cc2c[nH]c3ccccc23)C(=O)N[C@@H](Cc2ccc(O)cc2)C(=O)N[C@@H](CCC(=O)O)C(=O)N[C@H](C(=O)NCC(N)=O)CSCC(=O)N[C@@H](Cc2cc(F)c(F)c(F)c2)C(=O)N(C)[C@@H](Cc2ccccc2)C(=O)N1C [Example 9326] ({CH2CO}-[Phe(3,4,5-F3)][NMeF][NMeNle][d(cisHyp)]DV[NMeF]Y[d(cisHyp)]WYECG-NH2; thioether N-13)
7 | 1 to 9.9 nM | CCCC[C@H]1C(=O)N(C)[C@@H](CCCC)C(=O)N[C@@H](C)C(=O)N[C@H](C(=O)NCC(N)=O)CSCC(=O)N[C@@H](Cc2ccc(O)cc2)C(=O)N2CCCC[C@H]2C(=O)N[C@@H](CC(=O)O)C(=O)N2CCC[C@H]2C(=O)N[C@@H](CN)C(=O)N[C@@H](CC(C)C)C(=O)N2C[C@H](O)C[C@H]2C(=O)N[C@@H](Cc2c[nH]c3ccccc23)C(=O)N[C@@H](CO)C(=O)N[C@@H](Cc2c[nH]c3ccccc23)C(=O)N1C [Example 1523] ({CH2CO}-Y[Pip]DP[Dap]L[Hyp]WSW[NMeNle][NMeNle]ACG-NH2; thioether N-14)
8 | 1 to 9.9 nM | CCCC[C@H]1C(=O)N2C[C@@H](O)C[C@@H]2C(=O)N[C@@H](CC(=O)O)C(=O)N[C@@H](C(C)C)C(=O)N(C)[C@@H](Cc2ccccc2)C(=O)N[C@@H](Cc2ccc(O)cc2)C(=O)N2C[C@@H](O)C[C@@H]2C(=O)N[C@@H](Cc2c[nH]c3ccccc23)C(=O)N[C@@H](Cc2ccc(O)cc2)C(=O)N[C@@H](CCCN)C(=O)N[C@H](C(=O)NCC(N)=O)CSCC(=O)N[C@@H](Cc2ccc(F)c(F)c2)C(=O)N(C)[C@@H](Cc2ccccc2)C(=O)N1C [Example 9231] ({CH2CO}-[Phe(3,4-F2)][NMeF][NMeNle][dHyp]DV[NMeF]Y[dHyp]WY[Orn]CG-NH2; thioether N-13)
9 | 1 to 9.9 nM | CCCC[C@H]1C(=O)N2C[C@H](O)C[C@@H]2C(=O)N[C@@H](CC(=O)O)C(=O)N[C@@H](C(C)C)C(=O)N(C)[C@@H](Cc2ccccc2)C(=O)N[C@@H](CC(=O)O)C(=O)N2CSC[C@@H]2C(=O)N[C@@H](Cc2c[nH]c3ccccc23)C(=O)N[C@@H](Cc2ccc(O)cc2)C(=O)N[C@@H](CC(C)C)C(=O)N[C@H](C(=O)NCC(N)=O)CSCC(=O)N[C@@H](Cc2cc(F)c(F)c(F)c2)C(=O)N(C)[C@@H](Cc2ccccc2)C(=O)N1C [Example 10149] ({CH2CO}-[Phe(3,4,5-F3)][NMeF][NMeNle][d(cisHyp)]DV[NMeF]D[dThz]WYLCG-NH2; thioether N-13)
10 | 10 to 99.9 nM | CCCC[C@H]1C(=O)N[C@@H](CC(C)C)C(=O)N[C@H](C(=O)NCC(N)=O)CSCC(=O)N[C@@H](Cc2ccc(O)cc2)C(=O)N(C)[C@@H](C)C(=O)N[C@@H](CCN)C(=O)N2CCC[C@H]2C(=O)N[C@@H](Cc2c[nH]cn2)C(=O)N[C@@H](CCC(=O)O)C(=O)N2C[C@H](O)C[C@H]2C(=O)N[C@@H](Cc2c[nH]c3ccccc23)C(=O)N[C@@H](CO)C(=O)N[C@@H](Cc2c[nH]c3ccccc23)C(=O)N(C)[C@@H](CCOC)C(=O)N1C [Example 10140] ({CH2CO}-Y[NMeA][Dab]PHE[Hyp]WSW[NMehSer](Me)[NMeNle]LCG-NH2; thioether N-14)
11 | 1 to 9.9 nM | CCCC[C@H]1C(=O)N2CCC[C@@H]2C(=O)N[C@@H](CC(=O)O)C(=O)N[C@@H](C(C)C)C(=O)N(C)[C@@H](Cc2ccccc2)C(=O)N[C@@H](CCC(=O)O)C(=O)N2CCOC[C@@H]2C(=O)N[C@@H](Cc2c[nH]c3ccccc23)C(=O)N[C@@H](Cc2ccc(O)cc2)C(=O)N[C@@H](CCN)C(=O)N[C@H](C(=O)NCC(N)=O)CSCC(=O)N[C@@H](Cc2cc(F)c(F)c(F)c2)C(=O)N(C)[C@@H](Cc2ccc(F)cc2)C(=O)N1C [Example 10605] ({CH2CO}-[Phe(3,4,5-F3)][NMePhe(4-F)][NMeNle][dP]DV[NMeF]E[X1]WY[Dab]CG-NH2; thioether N-13)
12 | 1 to 9.9 nM | CCCC[C@H]1C(=O)N2CCC[C@@H]2C(=O)N[C@@H](CC(=O)O)C(=O)N[C@@H](C(C)C)C(=O)N(C)[C@@H](Cc2ccccc2)C(=O)N[C@@H](CCN)C(=O)N2CCOC[C@@H]2C(=O)N[C@@H](Cc2c[nH]c3ccccc23)C(=O)N[C@@H](Cc2ccc(O)cc2)C(=O)N[C@@H](CCN)C(=O)N[C@H](C(=O)NCC(N)=O)CSCC(=O)N[C@@H](Cc2cc(F)c(F)c(F)c2)C(=O)N(C)[C@@H](Cc2ccc(O)cc2)C(=O)N1C [Example 10623] ({CH2CO}-[Phe(3,4,5-F3)][NMeY][NMeNle][dP]DV[NMeF][Dab][X1]WY[Dab]CG-NH2; thioether N-13)
13 | 1 to 9.9 nM | CCCC[C@H]1C(=O)N(C)[C@@H](CCCC)C(=O)N[C@@H](CN)C(=O)N[C@H](C(=O)NCC(N)=O)CSCC(=O)N[C@@H](Cc2ccc(O)cc2)C(=O)N2CCCC[C@H]2C(=O)N[C@@H](CC(N)=O)C(=O)N2CCC[C@H]2C(=O)N[C@@H](CN)C(=O)N[C@@H](CC(C)C)C(=O)N2C[C@H](C)C[C@H]2C(=O)N[C@@H](Cc2c[nH]c3ccccc23)C(=O)N[C@@H](CCN)C(=O)N[C@@H](Cc2cn(CC(=O)O)c3ccccc23)C(=O)N1C [Example 1291] ({CH2CO}-Y[Pip]NP[Dap]L[Pro(4R-Me)]W[Dab][Trp(1-CH2COOH)][NMeNle][NMeNle][Dap]CG-NH2; thioether N-14)
14 | 1 to 9.9 nM | CCCC[C@H]1C(=O)N(C)[C@@H](CCCC)C(=O)N[C@@H](CCC(=O)O)C(=O)NC(C(=O)NCC(N)=O)CSCC(=O)N[C@@H](Cc2ccc(O)cc2)C(=O)N(C)[C@@H](C)C(=O)N[C@@H](CC(N)=O)C(=O)N2CCC[C@H]2C(=O)N[C@@H](CC(N)=O)C(=O)N[C@@H](CC(C)C)C(=O)N2CCC[C@H]2C(=O)N[C@@H](Cc2c[nH]c3ccccc23)C(=O)N[C@@H](CCN)C(=O)N[C@@H](Cc2c[nH]c3ccccc23)C(=O)N1C (stereo partly drawn) [Example 9180] ({CH2CO}-Y[NMeA]NPNLPW[Dab]W[NMeNle][NMeNle]E[ξC]G-NH2; thioether N-14)

same assay, conditions: PD-L1-His 10 nM, PD-1-Ig 20 nM; read-out: HTRF Human PD-L1/PD-1 Binding Assay IC50

Row | SMILES | IC50
15 | CCCC[C@H]1C(=O)N(C)[C@@H](CCCC)C(=O)N[C@@H](CCCNC(=N)N)C(=O)NC(C(=O)NCC(N)=O)CSCC(=O)N[C@@H](Cc2ccc(O)cc2)C(=O)N(C)[C@@H](C)C(=O)N[C@@H](CC(N)=O)C(=O)N2CCC[C@H]2C(=O)N[C@@H](CCO)C(=O)N[C@@H](CO)C(=O)N2CCC[C@H]2C(=O)N[C@@H](Cc2c[nH]c3ccccc23)C(=O)N[C@@H](CO)C(=O)N[C@@H](Cc2csc3ccccc23)C(=O)N1C (stereo partly drawn) [Example 10022] ({CH2CO}-Y[NMeA]NP[hSer]SPWS[Bta][NMeNle][NMeNle]R[ξC]G-NH2; thioether N-14) | 134 nM
